Results from patent US20250345446A1 (Draupnir Bio ApS, priority 2022, published 2025).
Read-outs that look alike come from different tables or passages of the source. Residues, ends and D or L forms follow the SMILES beside them. *: point of attachment. Biotin = O=C1N[C@H]2[C@H](CS[C@H]2CCCCC(=O)*)N1

Columns and labels:
[1] = molecular target: T1, soluble ectodomain of sortilin-6his (Homo sapiens, UniProt Q99523, V650M); test: MST binding to soluble ectodomain of sortilin-6his; settings: MST, read-out: KD score, binding to sortilin (Kd)
T1 construct: the soluble ectodomain of sortilin-6his is measured by microscale thermophoresis (MST)

[2] = tested on: HEK293/sortilin cells; test: Pulse-chase cellular degradation of TNFalpha (Western blot of lysates); format: cell-based; settings: 24 h pre-incubation with compound 3 μM and TNFalpha 100 nM, chase 0 h to 24 h
Description: To monitor cellular degradation of target over time, a pulse-chase experiment was performed: HEK293/sortilin cells were pre-incubated with bifunctional compound (3 μM) and TNFalpha (100 nM) for 24 h before replacing culture supernatant with fresh media without target and bifunctional compound. Following replacement of media, cells were incubated for up to 24 h and TNFa levels was assessed at different timepoints by Western blotting of cell lysates.

[3] = tested on: HEK293 cells expressing full length sortilin receptor; test: Cellular uptake of TNFalpha / Cy5-TNFalpha mediated by bifunctional compounds; format: cell-based; settings: 24 h, 0.5 nM to 20 μM, leupeptin 80 μM vs without
Description: Cellular uptake of TNFalpha was investigated in HEK293 cells expressing full length sortilin receptor using a methodology analogous to example 3 with TNFalpha target.
Efficacy of individual bifunctional compounds was assessed as AUC of TNFalpha internalisation (Table 9)

[4] = tested on: HEK293/sortilin cells; test: Remaining TNFalpha in conditioned media (ELISA); format: cell-based; settings: after 72 h, 20 nM TNFalpha; added TNFalpha (100%) subtracted remaining TNFalpha (%)
Description: In different experiments, HEK293/sortilin cells were incubated with compound gradient series and 20 nM TNFalpha for up to 72 h. Following incubation, remaining TNFalpha in conditioned media was evaluated using human TNF-alpha Quantikine ELISA Kit (R&D systems, DTA00D).

[5] = tested on: TNFa plasma levels; test: Mouse model of LPS induced acute systemic inflammation, plasma TNFa; format: in vivo; settings: 10 or 30 mg/kg, 1 hour after LPS, C57BL/6J mice, p<0.0001 (one-way ANOVA)
Description: Degrader in vivo efficacy was investigated in a mouse model of lipopolysaccaride (LPS) induced acute systemic inflammation. Female C57BL/6J mice, 8 weeks of age were used in this model, and LPS was dosed as IP injection at a final concentration of 0.5 mg/kg in PBS at 10 ml/kg. 30 min to 3 hours prior LPS administration, animals were dosed with test compound (100-0.3 mg/kg/IP), dexamethasone (Dex) control (0.5 mg/kg/PO) or vehicle control (IP). Untreated (normal) animals were included as control for LPS induced TNFa expression. One hour post LPS administration, blood samples were collected and TNFa level was assessed by Cytometric Bead Array assay.

[6] = tested on: HEK293/sortilin cells; test: Lysosomal degradation of internalized AlexaFluor488-anti-DNP antibody (blotted lysates); format: cell-based; settings: 6:30 h, AlexaFluor488-anti-DNP antibody 100 nM, compound 30 nM
Description: Intracellular levels of AlexaFluor488-anti-DNP antibody (Thermo Fisher) following internalization was investigated in HEK293/sortilin cells. Cells (250k) were seeded in 4-well plates in 250 μL culture medium as described in Example 3 and incubated overnight.
Culture medium was replaced with assay medium (as described in Example 3) with AlexaFluor488-anti-DNP antibody (Thermo Fisher) (100 nM) and BF005 (30 nM). Selected samples were added sortilin inhibitor, AF38469 (10 μM) or a lysosomal protease inhibitor, Leupeptin (80 μM) (Sigma Aldrich). Cells were incubated 3-6: 30 h in cell incubator before they were washed with dPBS (Bionordika) and medium was either replaced with assay medium without BF005 and AlexaFluor488-anti-DNP antibody and incubated in cell incubator for up to 24 h or cells were lysed. Following incubation, cells were lysed in lysis buffer, and lysates were subjected to SDS-PAGE before transfer of proteins to a nitrocellulose membrane as described in Example 4. AlexaFluor488 FI signal was detected using an iBright 1500 (Thermo Fisher). Following evaluation of FI signal, membrane was blocked and incubated with primary anti-β-actin antibody (1:3500) (Sigma Aldrich) and secondary anti-mouse-HRP antibody (1:3500) (Abcam) and developed and analyzed using ECL reagents (Cytiva) and iBright 1500 (Thermo Fisher), as described in example 4. […]

[7] = molecular target: streptavidin, bifunctional compound and sortilin-6his (UniProt P22629+Q99523, V650M); test: TR-FRET ternary complex formation streptavidin / bifunctional peptide / sortilin-6his; settings: Table 2; […] incubation, HTRF ratio 665/620 nm
Description: In these experiments, the compounds of interest were titrated over 24-point in a 384-well TTP LVDS plate (SPT Labtech) to a final buffer composition of 50 mM Bis-Tris Propane pH 8, 50 mM NaCl, 0.05% Tween20, with or without 10% DMSO using a Mosquito LV pipetting robot (SPT Labtech).
The reaction was allowed to incubate for 2.5 hours at room temperature, at which point the HTRF signal ratio at 665/620 nm was determined using a plate reader (ClarioStar, BMG Labtech). All reactions were run in triplicates and data was represented as HTRF ratio as a function of bifunctional compound concentration.

[8] = tested on: HEK293/sortilin cells; test: Depletion of NA650 from cell culture supernatant; format: cell-based; settings: after 48 and 72 hours, NA650 100 nM, 20 nM-5 μM
Description: HEK293/sortilin cells were cultured in culture media containing DMEM (Lonza) further supplemented with 10% fetal bovine serum (Sigma), 1% GlutaMax Supplement (Gibco), penicillin-streptomycin (Thermo Fischer) and selection antibiotics 100 μg/mL Zeocin (Invitrogen). 35k cells/well were seeded in poly-L-lysine coated 96-well plates (Perkin Elmer) and allowed to incubate for 16-24 h in cell incubator (37° C., humidified, 5% CO2). Culture media were discarded, and the cells were washed with assay medium containing FluoroBright DMEM (Gibco) supplemented with 10% fetal bovine serum (Sigma) and 1% GlutaMax Supplement (Gibco). The media were discarded and replaced with assay media or assay medium containing 100 nM NA650 (Invitrogen). For wells evaluating the bifunctional compounds, the assay medium also contained concentrations ranging from 20 nM to 5 μM. After an incubation period of up to 72 h in the cell incubator the media were harvested and the presence of NA650 were evaluated by fluorescence intensity (FI) measurements of DyLight650 using a fluorescence plate reader (BMG Labtech Clariostar).
HEK293/sortilin cells (35k cells/96-well) were seeded in culture media (as described in Example 3) and incubated for 24 h in cell incubator. Culture media were discarded, and the cells were washed with assay medium containing FluoroBright DMEM (Gibco) and supplements as described in Example 3, before incubation in assay medium containing 100 nM NA650 and small molecule bifunctional compounds (20 nM to 5 μM). After an incubation period of up to 72 h, the media were harvested and the presence of NA650 were evaluated by FI measurements of DyLight650 using a fluorescence plate reader (BMG Labtech Clariostar).

[9] = tested on: HEK293/sortilin; test: Cellular uptake of target in HEK293 cells expressing sortilin receptor (Example 22); format: cell-based; settings: 3 h, 2 nM to 2 μM, corresponding targets
Description: (§1) Cellular uptake of target was investigated in untransfected HEK239 cells and HEK293 cells expressing sortilin receptor in a methodology analogous to example 3.

[10] = tested on: untransfected HEK239 cells; test: Cellular uptake of target in untransfected HEK293 cells (Example 22); format: cell-based; settings: HEK293 cells without sortilin, 3 h, 2 nM to 2 μM, corresponding targets
Description: as §1

[11] = Table 4, small molecule bifunctional compounds

T1 sequence (Q99523 with tags, fused parts or gaps V650M): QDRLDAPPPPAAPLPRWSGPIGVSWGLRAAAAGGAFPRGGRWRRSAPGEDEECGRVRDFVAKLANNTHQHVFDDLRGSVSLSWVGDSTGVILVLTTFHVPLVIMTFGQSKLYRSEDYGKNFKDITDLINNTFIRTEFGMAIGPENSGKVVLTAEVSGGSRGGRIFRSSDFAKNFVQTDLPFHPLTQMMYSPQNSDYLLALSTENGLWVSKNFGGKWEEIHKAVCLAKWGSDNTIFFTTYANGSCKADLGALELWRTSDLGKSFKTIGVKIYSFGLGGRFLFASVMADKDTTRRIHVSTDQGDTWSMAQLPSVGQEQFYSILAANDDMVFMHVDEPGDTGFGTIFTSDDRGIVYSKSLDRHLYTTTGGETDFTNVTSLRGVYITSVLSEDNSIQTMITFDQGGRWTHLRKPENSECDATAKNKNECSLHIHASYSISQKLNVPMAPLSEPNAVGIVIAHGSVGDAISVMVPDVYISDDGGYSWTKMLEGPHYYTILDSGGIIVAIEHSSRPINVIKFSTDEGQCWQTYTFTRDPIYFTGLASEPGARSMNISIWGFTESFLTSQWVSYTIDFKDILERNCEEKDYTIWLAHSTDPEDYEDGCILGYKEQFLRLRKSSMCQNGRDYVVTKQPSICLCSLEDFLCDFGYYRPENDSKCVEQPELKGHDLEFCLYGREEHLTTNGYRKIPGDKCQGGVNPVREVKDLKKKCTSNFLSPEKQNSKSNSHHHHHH

## C[C@@H]1CN(c2ncc(-c3ccc4c(n3)N(Cc3cccnc3C#N)C(C)(C)C4=O)cn2)CCN1C(=O)CNC(=O)CCCCCCCCCCCNC(=O)c1cccc(Oc2ccc(C(=O)N[C@@H](CCC(C)(C)C)C(=O)O)cn2)c1 [BF042, (2S)-2-[[6-[3-[[12-[[2-[(2R)-4-[5-[1-[(2-cyano-3-pyridyl)methyl]-2,2-dimethyl-3-oxo-pyrrolo[2,3-b]pyridin-6-yl]pyrimidin-2-yl]-2-methyl-piperazin-1-yl]-2-oxo-ethyl]amino]-12-oxo-dodecyl]carbamoyl]phenoxy]pyridine-3-carbonyl]amino]-5,5-dimethyl-hexanoic acid]
[1]; [11]
  Kd: 1 to 10 nM
[2]
  TNFalpha bands in cell lysate over time: barely detectable after 7 h
[3]
  cell associated FI signal with addition of leupeptin: marked increases cell associated signal
[4]
  Maximum clearance rates of TNFalpha from conditioned media: 74.4%

## Cc1nc2cc(F)c(-c3cnc(N4CCN(C(=O)Cn5cc(COCCOCCOCC(=O)N6CCC(Oc7cccc(Oc8ccc(C(=O)N[C@@H](CCC(C)(C)C)C(=O)O)cn8)c7)CC6)nn5)[C@H](C)C4)nc3)nc2c(N[C@H](C)c2cc(C#N)ccc2F)c1Cl [BF094, (2S)-2-[[6-[3-[[1-[2-[2-[2-[[1-[2-[(2R)-4-[5-[7-chloro-8-[[(1R)-1-(5-cyano-2-fluoro-phenyl)ethyl]amino]-3-fluoro-6-methyl-1,5-naphthyridin-2-yl]pyrimidin-2-yl]-2-methyl-piperazin-1-yl]-2-oxo-ethyl]triazol-4-yl]methoxy]ethoxy]ethoxy]acetyl]-4-piperidyl]oxy]phenoxy]pyridine-3-carbonyl]amino]-5,5-dimethyl-hexanoic acid]
[1]; [11]
  Kd: 1 to 10 nM
[5]
  plasma TNFa compared to vehicle group: significant decrease

## CNC(=O)c1cccc2c(Oc3ccc(C(=O)N[C@@H](CCC(C)(C)C)C(=O)O)cn3)cccc12 [SB001, (2S)-5,5-dimethyl-2-[[6-[[5-(methylcarbamoyl)-1-naphthyl]oxy]pyridine-3-carbonyl]amino]hexanoic acid]
[6]
  Ig heavy chain (HC) band in lysates: absent

## CC(C)C[C@H](NC(=O)[C@H](CC(C)C)NC(=O)[C@H](CCC(N)=O)NC(=O)[C@H](Cc1ccccc1)NC(=O)CNC(=O)CNC(=O)[C@H](CO)NC(=O)CNC(=O)CNC(=O)CNC(=O)CNC(=O)[C@H](CO)NC(=O)CNC(=O)CNC(=O)CNC(=O)CNC(=O)[C@H](CO)NC(=O)CNC(=O)CNC(=O)CCCC[C@@H]1SC[C@@H]2NC(=O)N[C@@H]21)C(=O)O [SEQ ID NO.: 155] (Biotin-GGSGGGGSGGGGSGGFQLL-OH)
[7]
  AUC score, TR-FRET measurements of ternary complex formation: ++ (AUC > 5000)
[1]; Table 1, biotin-linker-peptide bifunctional compounds
  Kd: 100 to 2000 nM
[8]
  NA650 FI signal in supernatant compared to SEQ ID NO.: 147 (in words): further reduction of target in cell culture supernatant
[9]
  cell associated FI response to increasing degrader concentration: bell-shaped FI response
[10]
  cell associated FI response to increasing degrader concentration: No response
